# Laboratory results from paper PMC7162861, “Synthesis, cytotoxicity, pharmacokinetic profile, binding with DNA and BSA of new imidazo[1,2-a]pyrazine-benzo[d]imidazol-5-yl hybrids” (Scientific Reports, 2020).
# Assays:
# SN12C = test: NCI cytotoxicity screen, Renal Cancer panel; assay type: cell-based
# Method: (§1) Cytotoxicity was performed at National Cancer Institute (NCI), Bethesda, USA as per their protocols.
# ACHN = test: NCI cytotoxicity screen, Renal Cancer panel; assay type: cell-based
# Method: as §1
# RXF 393 = test: NCI cytotoxicity screen, Renal Cancer panel; assay type: cell-based
# Method: as §1
# A498 = test: NCI cytotoxicity screen, Renal Cancer panel; assay type: cell-based
# Method: as §1
# UO-31 = test: NCI cytotoxicity screen, Renal Cancer panel; assay type: cell-based
# Method: as §1
# CAKI-1 = test: NCI cytotoxicity screen, Renal Cancer panel; assay type: cell-based
# Method: as §1
# OVCAR-3 = test: NCI cytotoxicity screen, Ovarian Cancer panel; assay type: cell-based, human
# Method: as §1
# HT29 = test: NCI cytotoxicity screen, Colon Cancer panel; assay type: cell-based
# Method: as §1
# COLO 205 = test: NCI cytotoxicity screen, Colon Cancer panel; assay type: cell-based
# Method: as §1
# HCT-116 = test: NCI cytotoxicity screen, Colon Cancer panel; assay type: cell-based; details: Homo sapiens, five dose 0.01–100 µM
# Method: as §1
# HCT-15 = test: NCI cytotoxicity screen, Colon Cancer panel; assay type: cell-based; details: Homo sapiens
# Method: as §1
# MALME-3M = test: NCI cytotoxicity screen, Melanoma panel; assay type: cell-based
# Method: as §1
# MDA-MB-435 = test: NCI cytotoxicity screen, Melanoma panel; assay type: cell-based; details: MDA-MB-435
# Method: as §1
# UACC-257 = test: NCI cytotoxicity screen, Melanoma panel; assay type: cell-based
# Method: as §1
# SK-MEL-5 = test: NCI cytotoxicity screen, Melanoma panel; assay type: cell-based
# Method: as §1
# SK-MEL-28 = test: NCI cytotoxicity screen, Melanoma panel; assay type: cell-based
# Method: as §1
# SK-MEL-2 = test: NCI cytotoxicity screen, Melanoma panel; assay type: cell-based
# Method: as §1
# NCI-522 = test: NCI cytotoxicity screen, Non-Small Cell Lung Cancer panel; assay type: cell-based, human
# Method: as §1
# NCI-H322M = test: as above; assay type: cell-based, human
# Method: as §1
# NCI-H23 = test: as above; assay type: cell-based, human; details: five dose 0.01–100 µM
# Method: as §1
# NCI-H226 = test: as above; assay type: cell-based, human
# Method: as §1
# LOX IMVI = test: NCI cytotoxicity screen, Melanoma panel; assay type: cell-based, human
# Method: as §1
# UACC-62 = test: NCI cytotoxicity screen, Melanoma panel; assay type: cell-based, human; details: Homo sapiens, five dose 0.01–100 µM
# Method: as §1
# [1] = Homo sapiens, five dose 0.01–100 µM, read-out: LC50 (the source's name)
# [2] = Homo sapiens, five dose 0.01–100 µM
structure (smiles),measurement,setting,value
"c1cn2cc(-c3ccc4ncn(C5CCCCC5)c4c3)nc(-c3ccc4c(c3)ncn4C3CCCCC3)c2n1 [Compound 31, 8-(1-cyclohexyl-1H-benzo[d]imidazol-5-yl)-6-(1-cyclohexyl-1H-benzo[d]imidazol-6-yl)imidazo[1,2-a]pyrazine]",GI50,SN12C; Homo sapiens,2050 nM
same,CC50,SN12C; [1],> 1000 nM
same,TGI,SN12C; five dose 0.01–100 µM,4530 nM
same,GI50,ACHN; Homo sapiens,1680 nM
same,CC50,ACHN; [1],5610 nM
same,TGI,ACHN; five dose 0.01–100 µM,3070 nM
same,GI50,RXF 393; Homo sapiens,1510 nM
same,CC50,RXF 393; [1],5940 nM
same,TGI,RXF 393; five dose 0.01–100 µM,2990 nM
same,GI50,A498; Homo sapiens,1770 nM
same,CC50,A498; [1],5850 nM
same,TGI,A498; five dose 0.01–100 µM,3220 nM
same,GI50,UO-31; Homo sapiens,1490 nM
same,CC50,UO-31; [1],5460 nM
same,TGI,UO-31; five dose 0.01–100 µM,2850 nM
same,TGI,"CAKI-1; CAKI-1, five dose 0.01–100 µM",2950 nM
same,GI50,"CAKI-1; Homo sapiens, CAKI-1",1460 nM
same,inhibition at 10 µM,"CAKI-1; Homo sapiens, CAKI-1, read-out: Percent growth inhibition",82.8%
same,CC50,"CAKI-1; Homo sapiens, CAKI-1, five dose 0.01–100 µM, read-out: LC50 (the source's name)",5970 nM
same,GI50,"OVCAR-3; Homo sapiens, OVCAR-3",1830 nM
same,CC50,"OVCAR-3; Homo sapiens, OVCAR-3, read-out: LC50",6200 nM
same,TGI,"OVCAR-3; OVCAR-3, five dose 0.01–100 µM",3360 nM
same,TGI,"HT29; HT29, five dose 0.01–100 µM",5200 nM
same,GI50,"HT29; Homo sapiens, HT-29",2440 nM
same,CC50,"HT29; Homo sapiens, HT-29, HT29, five dose 0.01–100 µM, read-out: LC50 (the source's name)",> 1000 nM
same,GI50,COLO 205; Homo sapiens,1930 nM
same,LC50,COLO 205; [2],7440 nM
same,TGI,COLO 205; five dose 0.01–100 µM,3790 nM
same,GI50,HCT-116,1700 nM
same,GI50,HCT-15,2070 nM
same,GI50,"MALME-3M; Homo sapiens, Malme-3M",2110 nM
same,CC50,"MALME-3M; Homo sapiens, MALME-3M, five dose 0.01–100 µM, read-out: LC50 (the source's name)",6680 nM
same,TGI,"MALME-3M; MALME-3M, five dose 0.01–100 µM",3750 nM
same,GI50,MDA-MB-435; Homo sapiens,1770 nM
same,CC50,MDA-MB-435; [1],7110 nM
same,TGI,MDA-MB-435; five dose 0.01–100 µM,3550 nM
same,GI50,UACC-257; Homo sapiens,2100 nM
same,LC50,UACC-257; [2],6240 nM
same,TGI,UACC-257; five dose 0.01–100 µM,3620 nM
same,GI50,SK-MEL-5; Homo sapiens,1490 nM
same,CC50,SK-MEL-5; [1],5390 nM
same,TGI,SK-MEL-5; five dose 0.01–100 µM,2830 nM
same,GI50,SK-MEL-28; Homo sapiens,1810 nM
same,CC50,SK-MEL-28; [1],6430 nM
same,TGI,SK-MEL-28; five dose 0.01–100 µM,3410 nM
same,GI50,SK-MEL-2; Homo sapiens,1740 nM
same,CC50,SK-MEL-2; [1],6450 nM
same,TGI,SK-MEL-2; five dose 0.01–100 µM,3350 nM
same,GI50,NCI-522; Homo sapiens,1740 nM
same,TGI,"NCI-522; NCI-522, five dose 0.01–100 µM",3400 nM
same,GI50,NCI-H322M; Homo sapiens,1910 nM
same,inhibition at 10 µM,"NCI-H322M; Homo sapiens, single dose 10 µM, negative = lethal, read-out: Percent growth inhibition",98.8%
same,TGI,NCI-H322M; five dose 0.01–100 µM,4140 nM
same,GI50,NCI-H23; Homo sapiens,2010 nM
same,TGI,NCI-H23,4090 nM
same,GI50,NCI-H226; Homo sapiens,1690 nM
same,TGI,NCI-H226; five dose 0.01–100 µM,3790 nM
same,GI50,LOX IMVI; Homo sapiens,1680 nM
same,TGI,LOX IMVI; five dose 0.01–100 µM,3220 nM
same,GI50,UACC-62,1700 nM
